The values that follow come from patent US5344922A, “4-hydroxyquinaldic acid derivatives” (priority 1992, dated 1994).

Several values for one entry are separate records, joined by “and”; a condition that tells them apart may be missing. Equal entries are not always repeated. Where two headings read alike, the source gives them in different places.

One data set concerns NMDA receptor. The data set is described as follows: Photolabeling of cortical membranes followed by SDS polyacrylamide gel electrophoresis. It is filed as binding, rat. Conditions: cortical membranes photolabeled, 366 nm; bands Rf 0.71 and 0.53. Here is the method:
E. Photolabeling with 7-chloro-4-hydroxy-2-quinoline carbonyl azide
(§1) Thus, in all experiments, 7-chloro-4-hydroxy-2-quinoline carbonyl azide was first dissolved at high concentrations (1-10 mM) in dimethylsulfoxide (DMSO) and then diluted in the appropriate physiological buffer. […] The appropriate DMSO control was performed at the same time, and no changes in the binding of radioligands were ever observed. This procedure, and all subsequent procedures where non-photolyzed material was desired, were performed under red light.
Previously washed rat cortical membranes were resuspended at approximately 0.1 mg protein/ml in the appropriate buffer (pH 7.4 at 23° C.), and 30 ml were placed in each of 3 or 4 150×25 mm polystyrene culture dishes on a rotating shaker. A 200 μL aliquot of a 10 mM solution of 7-chloro-4-hydroxy-2-quinoline carbonyl azide dissolved in DMSO was added and the solution was mixed for 10 min in the dark. […]
Cortical membranes were photolabeled with 7-chloro-4-hydroxy-2-quinoline as described in Example II, section E. Protein concentration of this preparation was determined using the BCA protein assay kit (Pierce, Rockford, Ill.). […]
Gels were removed and fluorescent bands visualized and recorded using a transilluminator (Fotodyne, New Berlin, Wis.) fitted with four 366nm UV bulbs (15 watts). […]

The target of another data set is NMDA recognition site. The data set is described as follows: NMDA-specific 3H-L-glutamate binding assay in cortical membranes. Further details: species or system rat. Here is the method:
^3 H-Glycine (^3 H-GLY), ^3 H-TCP and NMDA specific ^3 H-GLU binding assays were performed in a buffy coat rat cortical membrane preparation (Jones et al., 1989). The tissue was homogenized in a glass grinding vessel with a teflon pestle in ice-cold 0.32 M sucrose and centrifuged for 10 min at 1000×g. The resultant supernatant was decanted and recentrifuged at 20,000×g for 20 min. The pellet was resuspended in 20 volumes of ice-cold dH20 and centrifuged for 20 min at 8000×g. The supernatant and the buffy coat were then re-collected and recentrifuged at 48,000×g for 20 min. The pellet was resuspended in 20 volumes of ice-cold water and centrifuged for 20 min at 48,000×g, after which it was stored at -20° C. for not more than two weeks. On the day of the assay, the pellet was thawed, resuspended in 40 volumes of buffer, incubated at 37° C. for 20 min in the appropriate buffer, and centrifuged for 10 min at 48,000×g. […] Protein concentrations were determined by the method described by Smith (1985). […]
For equilibrium saturation experiments, different concentrations of ^3 H-glutamate (diluted with unlabeled L-glutamate) ranging from 10 to 320 nM in the presence or absence of test drug(s) were examined. Non-specific binding was defined as that remaining in the presence of 300 μM NMDA and was determined at the lowest and the highest concentration of ^3 H-L-glutamate. […]

Data set [1] concerns the target T1, strychnine-insensitive glycine site associated with the NMDA receptor/channel complex (Rattus norvegicus, UniProt P35439).
T1 construct: buffy coat rat cortical membrane preparation; from tissue; host or cells: rat cerebral cortex, buffy coat membranes
The data set is described as follows: 3H-glycine binding assay in cortical membranes. Conditions: for Hill slope (nH), displacement of 3H-glycine binding: mean ± S.E.M. Here is the method: (§2) ^3 H-Glycine (^3 H-GLY), ^3 H-TCP and NMDA specific ^3 H-GLU binding assays were performed in a buffy coat rat cortical membrane preparation (Jones et al., 1989). The tissue was homogenized in a glass grinding vessel with a teflon pestle in ice-cold 0.32 M sucrose and centrifuged for 10 min at 1000×g. The resultant supernatant was decanted and recentrifuged at 20,000×g for 20 min. The pellet was resuspended in 20 volumes of ice-cold dH20 and centrifuged for 20 min at 8000×g. The supernatant and the buffy coat were then re-collected and recentrifuged at 48,000×g for 20 min. The pellet was resuspended in 20 volumes of ice-cold water and centrifuged for 20 min at 48,000×g, after which it was stored at -20° C. for not more than two weeks. On the day of the assay, the pellet was thawed, resuspended in 40 volumes of buffer, incubated at 37° C. for 20 min in the appropriate buffer, and centrifuged for 10 min at 48,000×g. The pellet was then resuspended in 40 volumes of buffer and recentrifuged at 48,000×g for 10 min. This step was repeated twice before the pellet finally resuspended in a buffer suitable for the particular binding assay. Protein concentrations were determined by the method described by Smith (1985).
C. ^3 H-Glycine Binding Assay
^3 H-glycine binding assays were initiated by addition of 100 μl aliquots of membrane homogenate (100-150 μg protein) to test tubes containing 20 nM ^3 H-glycine in the presence or absence of the test drug(s) dissolved in 50 mM Tris acetate or 50 mM Na-free HEPES buffer pH 7.5 for a final volume of 1 ml, followed by incubation for 30 min at 4° C. […] The filtration procedure and scintillation counting were performed as described above.
(§3) The Hill slopes (nH) and maximal displacement of radioligand binding were estimated by non-linear curve-fitting to a sigmoidal algorithm using the EBDA portion of the LIGAND data analysis software package for the IBM-PC (Elsevier). K1 values were obtained from the LIGAND analysis of the same data. KD and Bmax estimates were obtained by non-linear curve-fitting of the saturation isotherm using programs from the same software package (Munson and Rodbard, 1980). All data analysis was performed on each of 3-7 individual experiments performed in triplicate (7 concentrations) or duplicate (10 concentrations). Reported values are the mean ±S.E.M. of these analyses. For displacement experiments, these values were plotted with the sigmoid curve taken as the average of the sigmoidal fits of each individual experiment.
(In general: In a radioligand displacement assay an active substance lowers the binding of a labelled ligand.)

The target in data set [2] is T2, NMDA receptor/channel complex (Rattus norvegicus, UniProt P35439).
T2 construct: buffy coat rat cortical membrane preparation; from tissue; host or cells: rat cerebral cortex, buffy coat membranes
The data set is described as follows: biochemical. It is filed as biochemical. The procedure:
as §2, with “The” for “^3 H-Glycine (^3 H-GLY), ^3 H-TCP and NMDA specific ^3 H-GLU binding assays were performed in a buffy coat rat cortical membrane preparation (Jones et al., 1989). The”
D. ^3 H-TCP Binding Assay
The dissociative anesthetics ketamine and phencyclidine (PCP) selectively antagonize depolarizations produced by NMDA.
^3 H-TCP binding assays were initiated by addition of 100 μl aliquots of membrane homogenate (approximately 150 μg protein) to test tubes containing 5 nM ^3 H-TCP in the presence or absence of the test drug(s) dissolved in 10 mM HEPES buffer pH 7.5. The final volume in each tube was 1 ml, and tubes were incubated for 2 hr at 23° C. Non-specific binding was defined as that remaining in the presence of 30 μM PCP. The filtration procedure was used as described above except that the filters were presoaked for one hour in 0.03% polyethyleneimine (PEI) (Sigma) to reduce filter binding. Scintillation counting was performed as described above.
Previously washed rat cortical membranes were resuspended at approximately 0.1 mg protein/ml in the appropriate buffer (pH 7.4 at 23° C.), and 30 ml were placed in each of 3 or 4 150×25 mm polystyrene culture dishes on a rotating shaker. A 200 μL aliquot of a 10 mM solution of 7-chloro-4-hydroxy-2-quinoline carbonyl azide dissolved in DMSO was added and the solution was mixed for 10 min in the dark. Photolysis was accomplished by exposure of the reaction mixture to 366 nm long-wave ultraviolet light (Transilluminator, Fotodyne, Model 3-3000) at a distance of 5 cm for 10 min with continuous mixing.
as §3

The nature of a further data set: Solubility. It is filed as physicochemical. Here is the method: as §1
A further data set concerns glycine modulatory site. The settings on record: Kemp et al., 1988; cited from earlier work.
Data set [3] concerns NMDA-mediated neuronal response. The settings on record: glycine-reversible; Fletcher and Lodge, 1988; cited from earlier work.
The target of data set [4] is T1, strychnine-insensitive glycine site associated with the NMDA receptor/channel complex. The settings on record: read-out: K1 at the glycine site (reported); Fletcher and Lodge, 1988; cited from earlier work.
Setting [5] is: tissue treated with 7-chloro-4-hydroxyquinaldic acid and exposed to UV light.

Consider `[N-]=[N+]=NC(=O)c1cc(O)c2ccc(Cl)cc2n1` [7-chloro-4-hydroxy-2-quinoline carbonyl azide], for which the “fluorescent bands on SDS polyacrylamide gel after photolabeling” value with NMDA receptor is listed as “two distinct fluorescent bands”. The Ki at NMDA recognition site (n=5, mean ± S.E.M., read-out: K1 for the NMDA site) is 101 ± 12 µM; in data set [1], 2.4 ± 0.2 µM. The “displacement of NMDA-specific 3H-L-glutamate binding” value in the data set on NMDA recognition site (rat cortical membranes, FIG. 2B) is “less than 10%”. Besides, the “decrease in the apparent affinity for the 3H-glycine binding site on introduction of an azido group” value in data set [1] (azide relative to 7-chloro-4-hydroxyquinaldic acid) was found to be 5 fold. The “mode of displacement of 3H-glycine binding” value in data set [1] (rat cortical membranes, red light) was “apparently competitive”. Besides, the “Hill slope (nH), displacement of 3H-glycine binding” value in data set [1] (rat cortical membranes) is given as 0.90±0.08. Besides, the “selectivity for the 3H-glycine binding site” value in data set [1] (relative to the NMDA recognition site labeled by 3H-L-glutamate) is listed as “selective affinity for the ^3 H-glycine binding site relative to the NMDA recognition site”. In data set [2] (non-photolyzed azide), the “mode of inhibition of glycine action on 3H-TCP binding, non-photolyzed” value is “competitive antagonism of the actions of glycine”. Further, the inhibition at 10 µM in data set [2] (read-out: decrease of 3H-TCP binding in the absence of added glycine) worked out at 70%. The “mode of inhibition of glycine-enhanced 3H-TCP binding, UV irradiated” value in data set [2] (tissue UV irradiated in the presence of azide) was “distinctly non-competitive inhibition of glycine-enhanced ^3 H-TCP binding”. Further, in “Solubility”, the “solubility in polar solutions” value was “limited solubility”.

In turn, `O=C(O)c1cc(O)c2ccc(Cl)cc2n1` [7-chloro-4-hydroxyquinaldic acid] had a Ki in data set [1] of 0.49 ± 0.05 µM. In addition, the “Hill slope (nH), displacement of 3H-glycine binding” value in data set [1] (rat cortical membranes) came out at 0.74±0.03. In addition, the “activity at the glycine modulatory site” value in the data set with glycine modulatory site is listed as “selective antagonist of the glycine modulatory site”. Further, in data set [2] (setting [5]), the “reduction of 3H-TCP binding in the absence of added glycine” value came out at 100% and the “rightward parallel shift of the glycine concentration-response curve” value is listed as 4 fold.

Turning to `NC1CCN(O)C1=O` (stereo not drawn) [HA-966, 1-hydroxy-3-aminopyrrolidone-2], the “effect on NMDA-mediated neuronal response” value in data set [3] is recorded as “reduce NMDA-mediated neuronal response in a glycine-reversible manner”. Further, in data set [4], the Ki was approximately 5 µM.

For `NCC(=O)O` [glycine], the “slope of glycine concentration-response, 3H-TCP binding” value in data set [2] was 1.02 and 0.93 and 1.15. Besides, the Emax in data set [2] (read-out: maximal increase of 3H-TCP binding by glycine) amounted to 150%.
